Test results: patent US9234176B2, “Chemically defined production of cardiomyocytes from pluripotent stem cells” (The Board of Trustees of the Leland Stanford Junior …, priority 2012, dated 2016)

Assays:
hPSC = experiment: Directed cardiac differentiation of hPSC in minimal media (Example 1); type: cell-based, human; settings: for inducing cardiac differentiation (GSK-3β inhibitors, Wnt signaling agonists): BIO 2-5 μM, CHIR-99021 4-10 μM
Description: Directed Cardiac Differentiation Procedure. (volumes provided are for a T25 flask; adjust volumes proportionately for larger vessels) Day 0 (day 4 after passage): Aspirate medium, and replace with 5 mL of minimal media (CDM3, D3, D4, or D11) supplemented with 6 uM of CHIR-99021 (CHIR-99021 can be used at 4-15 μM). Place flasks in a regular ambient O2, 5% CO2 incubator. Day 2: 48 h. Aspirate media and replace with 5 mL of minimal media (CDM3, D3, D4, or D11). Day 3: 72 h. Aspirate media and replace with 5 mL of minimal media (CDM3, D3, D4, or D11) supplemented with 0.5 uM C59 (C59 may be used at 0.5-5 μM). Day 5: Aspirate media and replace with 5 mL of minimal media (CDM3, D3, D4, or D11). From day 5 onwards media should be changed every 2 days with minimal media (CDM3, D3, D4, or D11).
From day 0 to day 2 (d0-d2), minimal media (CDM3, D3, D4, or D11) was supplemented with the Wnt signaling agonist CHIR-99021 (6-10 uM 48 h, d0-d2), which triggers canonical Wnt/β-Catenin signaling that leads to the subsequent up-regulation of BMP4 and activin A. Media is then exchanged to non-supplemented minimal media (CDM3, D3, D4, or D11) for 1 day followed by contact with a Wnt signaling antagonist (e.g., C59: 0.5-5 uM, 48 h, d3-d5) for 2 days. At day 5, 7, and 9 minimal media (CDM3, D3, D4, or D11) is exchanged for fresh media, and contraction begins between d7 and d10. At day 11, media is exchanged to a variant of minimal media (CDM3, D3, D4, or D11) without […] that results in the depletion of non-cardiomyocytes due to a lack of glycogen stores. Media was exchanged on day 13 for fresh media lacking glucose. At day 15, media was exchanged for fresh minimal media (CDM3, D3, D4, or D11) (containing glucose).
The presence of cardiomyocytes was verified in a number of different ways, for example: flow cytometry of cells contacted with an antibody specific for a cardiomyocyte marker (TNNT2); imaging of cells stained with antibodies specific for α-Sarcomeric actin (red) and Troponin T (TNNT2); electrophysiological profiling; and evaluating responsiveness to known cardioactive drugs (e.g., Norepinephrine). Assays performed on multiple different cell lines (including several hESC lines and over 30 hiPSC lines) confirmed that the subject methods are highly consistent and highly efficient, as very little variability was observed among the different cell lines.

hiPSCs = experiment: Cardiac differentiation of hiPSCs in CDM3, optimisation of media and small molecules (TNNT2 flow cytometry); type: cell-based; settings: for timing of Wnt signaling modulation for cardiac differentiation efficiency: CHIR99021 for 2 days followed by Wnt-C59 for 2 days, in CDM3; for cell death / toxicity of GSK3B inhibitors: in CDM3, FIG. 10g; for inducing cardiac differentiation (GSK3B inhibitors): in CDM3, FIG. 10g-h
Description: Cardiac differentiation of hiPSCs. hiPSCs and hESCs (>p20) were split at 1:10 or 1:12 ratios using EDTA as above and grown for 4 days at which time they reached ˜85% confluence. Media was changed to CDM3, consisting of RPMI 1640 (11875, Life Technologies), 495 μg/mL Oryza sativa-derived recombinant human albumin (A0237, Sigma-Aldrich, 75 mg/mL stock solution in dH2O, stored at −20° C.), 213 μg/mL L-ascorbic acid 2-phosphate (Sigma-Aldrich, 64 mg/mL stock solution in dH2O, stored at −20° C.). Media was changed every other day (48 h). For d0-d2, media was supplemented with 6 μM CHIR99021 (LC Laboratories, Woburn, Mass., USA). On d2, media was change to CDM3 supplemented with […] Wnt-C59 (Cellagentech, San Diego, Calif., USA). Media was changed on d4 and every other day for CDM3.
Wnt inhibitors assessed were IWP-2, IWR-1 (Sigma-Aldrich), XAV-939, ICG-001 (Selleck Chemicals), IWP-4 (Stemgent, Cambridge, Mass., USA), and Wnt-C59 (Cellagentech). GSK3B inhibitors assessed were CHIR99021 (LC Laboratories), BIO, TWS119 (Selleck Chemicals), 1-azenkenpaullone, TDZD-8, ARA014418, and 3F8 (all Sigma-Aldrich). Inhibitors used for pathway analysis were PD173074, SB203580, LDN193189, SB431542 (all Selleck Chemicals), SU5402, Dorsomorphin, A83-01 (Tocris, Bristol, UK), ALK5 inhibitor (Stemgent), and ITD-1 (Xcessbio, San Diego, Calif., USA). All small molecules were re-suspended to 10 mM in dimethyl sulfoxide (DMSO).
Flow cytometry. For optimization of cardiac differentiation conditions, cells were cultured in 12-well plates. For analysis of cardiomyocyte differentiation efficacy and subtype specification, expression of TNNT2, MLC2A and MLC2V was analyzed by flow cytometry. At d14-15 of differentiation, the entire well was dissociated with TrypLE Express for 10 min at 37° C. and transferred to flow cytometry tubes (BD Biosciences). Cells were then fixed with 1% PFA for 15 min, permeabilized with 90% methanol for 15 min and stained using 1:200 mouse monoclonal IgG1 TNNT2 (13-11, Thermo Scientific), 1:400 mouse monoclonal IgG2b MLC2A (MYL7, Synaptic Systems) and 1:200 rabbit polyclonal IgG MLC2V (MYL2, ProteinTech) for 45 min at RT. Secondary staining was performed with 1:1000 Alexa Fluor 488 goat anti-mouse IgG1, 1:1000 Alexa Fluor 488 goat anti-rabbit IgG (H+L), 1:1000 Alexa Fluor 647 goat anti-mouse IgG2b and 1:1000 Alexa Fluor 647 goat anti-rabbit IgG (H+L) secondary antibodies for 20 min. […] Cells were analyzed using a FACSAria II (BD Biosciences) with a […] and FACSDiva software. Data were analyzed using FlowJo 8.7 (Tree Star).

hiPSC [1] = experiment: Analysis of components of defined media for hiPSC cardiac differentiation (contraction score); type: cell-based, human; parameters: 9 components subtracting: cardiac differentiation score / 2 components subtracting: cardiac differentiation score: scale not given here
Excerpt: Development of a Chemically Defined Cardiac Differentiation Platform. We first generated eleven pluripotent hiPSC lines under chemically defined conditions (FIG. 7) on a chemically synthesized vitronectin peptide substrate, with nonenzymatic passaging (FIG. 8). […] To formulate a chemically defined differentiation protocol, we concentrated on the observation that three unrelated media formations are capable of supporting growth factor-based monolayer cardiac differentiation: RPMI+B27-ins, supplemented StemPro-34, and LI-APEL (Table 5). […] Beginning with the 21 components of B27, we subtracted one component at a time and assessed for continued high efficiency differentiation (Table 6a-c) and also assessed components from two other two media (supplemented StemPro-34 and LI-APEL) that yielded benefits (Table 6d-f). We concluded that hiPSC cardiac differentiation was successful in a media consisting of […]: RPMI 1640 basal medium, L-ascorbic acid 2-phosphate (AA 2-P), and BSA (Table 6g).
Other additions to cardiac differentiation media tested were 10.7 μg/mL recombinant human transferrin, […], 1 μg/mL linoleic acid, 1 μg/mL linolenic acid, 2 ng/mL triiodo-l-thyronine, 2 μg/mL L-carnitine, 1 μg/mL D,L-alpha-tocopherol acetate, 100 ng/mL retinol acetate, 1 μg/mL ethanolamine, 20 ng/mL corticosterone, 9 ng/mL progesterone, 47 ng/mL lipoic acid, 100 ng/mL retinol, 1 μg/mL D,L-alpha-tocopherol, 100 ng/mL biotin, 2.5 ug/mL catalase, 2.5 μg/mL glutathione, 2.5 μg/mL superoxide dismutase, 2 μg/mL L-carnitine, 15 μg/mL D(+)-galactose, 16.1 μg/mL putrescine, 450 μM 1-thioglycerol, 55 μM 2-mercaptoethanol, 64 μg/mL L-ascorbic acid 2-phosphate (all from Sigma-Aldrich).

hiPSC [2] = experiment: Defined matrices: pluripotent growth and cardiac differentiation of hiPSC; type: cell-based, human
Excerpt: Determination that Laminin-Based Matrices are Most Suitable for Cardiac Differentiation. […] This lack of long-term adhesion during the differentiation was present irrelevant of vitronectin peptide concentrations and could be resolved by passaging and replating onto new matrix, yet we sought to find a more suitable solution. We assessed culture of hiPSC in E8 medium and subsequent differentiation on other defined matrices: recombinant human (rH) Ecadherin, rH vitronectin, rH laminin-521, truncated rH laminin-511, human fibronectin, or a fibronectin mimetic (FIG. 2a). Chemically defined long-term maintenance of pluripotency in E8 was successful on all surfaces except those based on fibronectin. […] Cells cultured on each of the five successful matrices (>6 passages) were then differentiated in CDM3. Although all matrices produced efficient differentiations (FIG. 2b), the laminin matrices were both successful for maintaining long-term adhesion during chemically defined cardiac differentiation (FIG. 2d), but prohibitively expensive for large-scale application. […]
Growth assays. To assess cell growth, cells were counted using a Countess automated cell counter (Life Technologies). […] Cumulative population doublings was calculated using the formula n=3.32 [log10(N/N0)].
Matrices. […] Matrices were assessed on both 6-well polystyrene tissue culture plates and untreated plates (both from Greiner). […]

In the case of `Cc1cnc(-c2cnc(NCCNc3ccc(C#N)cn3)nc2-c2ccc(Cl)cc2Cl)[nH]1` [CHIR-99021, 6-[[2-[[4-(2,4-dichlorophenyl)-5-(5-methyl-1H-imidazol-2-yl)-2-pyrimidinyl]amino]ethyl]amino]-3-pyridinecarbonitrile], the “inducing cardiac differentiation (GSK-3β inhibitors, Wnt signaling agonists)” value (hPSC) is reported as “successful at inducing cardiac differentiation”, the “timing of Wnt signaling modulation for cardiac differentiation efficiency” value (hiPSCs) is reported as “optimal” and the “cell death / toxicity of GSK3B inhibitors” value (hiPSCs) is reported as “did not cause total cell death”. The “inducing cardiac differentiation (GSK3B inhibitors)” value (hiPSCs) was “successful at inducing any suitable cardiac differentiation”.
In the case of `O=C1Nc2cc(Br)ccc2/C1=C1/Nc2ccccc2/C1=N\O` [BIO, 6-bromo-3-[(3E)-1,3-dihydro-3-(hydroxyimino)-2H-indol-2-ylidene]-1,3-dihydro-(3Z)-2H-indol-2-one], the “inducing cardiac differentiation (GSK-3β inhibitors, Wnt signaling agonists)” value (hPSC) is reported as “successful at inducing cardiac differentiation”, the “cell death / toxicity of GSK3B inhibitors” value (hiPSCs) is reported as “did not cause total cell death” and the “inducing cardiac differentiation (GSK3B inhibitors)” value (hiPSCs) is reported as “successful at inducing any suitable cardiac differentiation”.
`OCC(O)CS` (stereo not drawn) [1-thioglycerol] was tested, and the “effect of addition on differentiation” value (hPSC; addition d0-d2, PVA 0.4%) was “severely limited rather than enhanced differentiation” and the “9 components with the addition of: cardiac differentiation score” value (hiPSC [1]; d) addition of components from the other media formulae of Table 5) was 0.
With `Cc1cc(-c2ccc(CC(=O)Nc3ccc(-c4cccnc4)cc3)cc2)ccn1` [C59] the “Wnt signaling antagonist effective for cardiac differentiation” value (hPSC; at a concentration of 5 μM) was “effective” and the “timing of Wnt signaling modulation for cardiac differentiation efficiency” value (hiPSCs) was “optimal”.
In the case of “recombinant laminin-521: recombinant human laminin-521 matrix”, the “support of pluripotent hiPSC growth and long-term adherence of CMs” value (hiPSC [2]) is reported as “most successful”.
In the case of `O=C1O[C@H]([C@@H](O)CO)C(O)=C1OP(=O)(O)O` [AA 2-P, L-ascorbic acid 2-phosphate], the “effect of omitting the component from the differentiation medium” value (hiPSCs; medium without AA 2-P (FIG. 10a)) is reported as “total cell death”, the “9 components with the addition of: cardiac differentiation score” value (hiPSC [1]; d) component at 10 x concentration) is reported as “+++ (>75% contraction)” and the “9 components (with 4 at 10x) subtracting: cardiac differentiation score” value (hiPSC [1]; e) third medium with increased concentrations, each component subtracted) is reported as 0. For the same compound, the “6 components subtracting: cardiac differentiation score” value (hiPSC [1]; f) fourth 6-component medium, each component subtracted) was 0 and the “2 components subtracting: cardiac differentiation score” value (hiPSC [1]; g) final 3-component medium (RPMI 1640, BSA, 10 x L-ascorbic acid 2-phosphate), component subtracted) was 0.
In the case of `c1ccc(-c2[nH]ncc2-c2ccnc3ccccc23)nc1` [LY364947], the “further enhancement of differentiation by pathway inhibitors” value (hPSC; small molecule inhibitors at the later stage of differentiation) is reported as “did not further enhance the differentiation”.
